Measured values from patent publication US9428536B2, “Immunostimulatory G, U-containing oligoribonucleotides” (Zoetis Belgium SA, priority 2002, dated 2016).
Oligonucleotides are written 5' to 3', each unit as a sugar letter and its base; * is a phosphorothioate linkage, no mark a phosphodiester; rarer units and linkages stand in square brackets, end groups in braces. Plain capitals give the bases only. d = 2'-deoxy (DNA); r = 2'-OH (RNA)

Key:
[1] = system: wild type murine macrophages; assay: Wild type murine macrophages in the presence of IFN-γ, IL-12 p40 ELISA; assay type: cell-based, mouse; conditions: FIG. 6 Panel A, 12 hours, RNA with DOTAP
Description: The following murine cells were isolated and incubated with various RNAs and other known TLR ligands in order to assess species-, cell type-, and signaling pathway-specificity: wild type macrophages in the presence of IFN-γ; MyD88-deficient macrophages in the presence of IFN-γ; J774 (mouse macrophage cell line); and RAW 264.7 (mouse macrophage cell line, e.g., ATCC TIB-71). Murine bone macrophages were generated from wild type or MyD88-deficient C57BL/6 mice by culturing bone marrow cells with 50 ng/ml M-CSF for 5 days. Cells were seeded at 25,000 cells/well and treated with 20 ng/ml IFN-γ for 16 hours. The murine macrophage cell lines RAW and J774 were seeded at 10,000 cells/well.
The following test and control agents were examined: R-848 (2 μg/ml), ODN 1668 (CpG DNA; 5′-[…]-3′; SEQ ID NO:7); LPS (1 μg/ml); poly IC (50 μg/ml); Pam3Cys (5 μg/ml); Ionomycin/TPA; the following RNA molecules, each with (“+Lipo”) and without DOTAP (10 μg/200 μl culture well): GUGUUUAC alone (RNA1); GUAGGCAC alone (RNA2); GUGUUUAC in combination with GUAGGCAC (RNA1/2); […] (RNA6; SEQ ID NO:8); […] (RNA9; SEQ ID NO:9); and the following DNA molecules, corresponding to RNA1, RNA2, and RNA1/2: GTGTTTAC alone (DNA1); GTAGGCAC alone (DNA2); and GTGTTTAC in combination with GTAGGCAC (DNA1/2). These RNA and DNA oligonucleotides each contained a phosphorothioate linkage between the penultimate and 3′ terminal nucleoside. RNA6 and RNA9 each contained in addition a phosphorothioate linkage between the penultimate and 5′ terminal nucleoside. RNA6 corresponds to a ribosomal RNA stem loop derived from Listeria monocytogenes. RNA9 corresponds to a stem loop derived from human immunodeficiency virus (HIV, an RNA retrovirus). The cells were cultured for 12 hours and supernatants were harvested. Murine IL-12 p40, IL-6, and TNF-α were measured by ELISA using matched antibody pairs from BD-Pharmingen according to the manufacturer's protocol.

[2] = target: T1, human TLR7 (Homo sapiens, UniProt Q9NYK1); assay: NF-κB luciferase reporter in 293 HEK cells transfected with human TLR7; assay type: cell-based; conditions: for human TLR7 response to modified guanosine ribonucleosides: FIG. 18
T1 construct: All full-length TLR fragments were cloned into pGEM-T Easy vector; expressed in transfected cells; host or cells: 293 HEK cells (ATCC), transient electroporation with pcDNA3.1(-) TLR expression plasmid
T1 sequence (Q9NYK1 27-1049): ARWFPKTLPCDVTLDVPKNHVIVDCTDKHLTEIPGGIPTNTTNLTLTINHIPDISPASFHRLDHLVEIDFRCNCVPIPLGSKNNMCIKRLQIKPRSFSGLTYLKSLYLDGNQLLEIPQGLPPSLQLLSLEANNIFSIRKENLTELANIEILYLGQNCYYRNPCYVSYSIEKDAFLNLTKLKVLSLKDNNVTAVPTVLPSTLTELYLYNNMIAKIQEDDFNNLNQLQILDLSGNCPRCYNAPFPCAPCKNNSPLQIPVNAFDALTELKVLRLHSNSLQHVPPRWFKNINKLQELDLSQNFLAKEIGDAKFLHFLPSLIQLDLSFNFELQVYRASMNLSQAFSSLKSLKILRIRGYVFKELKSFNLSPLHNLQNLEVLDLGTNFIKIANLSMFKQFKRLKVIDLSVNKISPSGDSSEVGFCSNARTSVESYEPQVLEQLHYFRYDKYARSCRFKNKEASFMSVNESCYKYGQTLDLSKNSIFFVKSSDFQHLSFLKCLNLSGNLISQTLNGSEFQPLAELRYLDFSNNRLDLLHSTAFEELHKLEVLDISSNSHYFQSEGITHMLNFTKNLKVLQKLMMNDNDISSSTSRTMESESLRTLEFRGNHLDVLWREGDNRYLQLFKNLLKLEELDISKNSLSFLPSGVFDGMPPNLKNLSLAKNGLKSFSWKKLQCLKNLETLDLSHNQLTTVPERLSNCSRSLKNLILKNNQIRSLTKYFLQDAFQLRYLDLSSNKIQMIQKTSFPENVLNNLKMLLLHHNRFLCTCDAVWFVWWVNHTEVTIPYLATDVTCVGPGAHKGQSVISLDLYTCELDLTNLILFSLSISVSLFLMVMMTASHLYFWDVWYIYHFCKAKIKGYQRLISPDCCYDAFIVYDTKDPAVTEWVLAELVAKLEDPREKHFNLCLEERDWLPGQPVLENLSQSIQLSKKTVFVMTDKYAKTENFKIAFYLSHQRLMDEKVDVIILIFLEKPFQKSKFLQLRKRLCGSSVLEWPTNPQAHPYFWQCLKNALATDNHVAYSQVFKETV
Description: FIG. 12 depicts the responsiveness of human TLR7 and human TLR8 to ribonucleosides. It was determined that the response by human PBMC to RNA or RVC was mediated by TLR7 or TLR8 and further that the response could be driven by ribonucleosides only. Human 293 cells were either mock-transfected or transfected with human TLR7 or human TLR8 and monitored for responsiveness to ribonucleosides. The open reading frames of human TLR7 (hTLR7) and human TLR8 (hTLR8) were amplified by PCR from a cDNA library of human PBMC using the following primers pairs: for TLR7, 5′-[…]-3′ (SEQ ID NO:15) and 5′-[…]-3′ (SEQ ID NO:16); and for TLR8, 5′-[…]-3′ (SEQ ID NO:17) and 5′-[…]-3′ (SEQ ID NO:18). The sequence information for primer selection was obtained from Genbank accession numbers AF240467 and AF245703. All full-length TLR fragments were cloned into pGEM-T Easy vector (Promega, Mannheim, Germany), excised with NotI, cloned into the expression vector pcDNA 3.1(−) (Invitrogen, Karlsruhe, Germany) and sequenced. Sequences of the coding region of hTLR7 and hTLR8 correspond to the accession numbers AF240467 (SEQ ID NO:25) and AF245703, respectively (SEQ ID NO:29).
For monitoring transient NF-κB activation, 3×10^6 293 HEK cells (ATCC, VA, USA) were electroporated at 200 volt and 960 μF with 1 μg TLR expression plasmid, 20 ng NF-κB luciferase reporter-plasmid and 14 μg of pcDNA3.1(−) plasmid as carrier in 400 μl RPMI medium supplemented with 25% fetal bovine serum (FCS). Cells were seeded at 10^5 cells per well and after over night culture stimulated with R-848 (denoted in FIG. 12 as X; commercially synthesized by GLSynthesis Inc., Worcester, Mass., USA), RVCs or ribonucleosides for a further 7 hours. Stimulated cells were lysed using reporter lysis buffer (Promega, Mannheim, Germany), and lysate was assayed for luciferase activity using a Berthold luminometer (Wildbad, Germany).

[3] = system: human PBMC; assay: Human PBMC TNF-α secretion, ELISA; assay type: cell-based; conditions: for TNF-α max / EC50: Table 4, DNA:RNA conjugates, human PBMC overnight, including DOTAP; for EC50: read-out: TNF-α EC50
Description: Human peripheral blood mononuclear cells (PBMCs) were isolated from healthy donors, plated at 3×10^5 cells/well, stimulated in vitro with various test and control immunostimulatory agents for 16 hours, and then analyzed by enzyme-linked immunosorbent assay (ELISA) using matched antibody pairs from BD-Pharmingen for secreted cytokines IL-12 p40 and TNF-α, performed according to the manufacturer's protocol. Also included were certain negative controls, including medium alone and DOTAP (10 μg/200 μl culture well; “Liposomes”) alone. The control immunostimulatory agents included the imidazoquinolone R-848 (2 μg/ml), lipopolysaccharide (LPS; 1 μg/ml), Pam3Cys (5 μg/ml), poly IC (50 μg/ml), and CpG DNA (50 μg/ml). These are reported ligands for TLR7, TLR4, TLR2, TLR3, and TLR9, respectively. Test immunostimulatory agents included the following RNA molecules, each at 50 μg/ml, with and without DOTAP (10 μg total “with Liposomes” and “without Liposomes”, respectively): GUGUUUAC alone; GUAGGCAC alone; GUGUUUAC in combination with GUAGGCAC; GUAGGA; GAAGGCAC; CUAGGCAC; CUCGGCAC; and CCCCCCCC. These RNA oligonucleotides each contained a phosphorothioate linkage between the penultimate and 3′ terminal nucleoside.
The experiments described in the preceding example were repeated with varied concentrations of RNA oligonucleotides in order to assess the dose-response behavior of human PBMCs to G,U-containing RNA oligonucleotides of the invention. A total of 10, 3 or 1 μg RNA was added to 10 μg DOTAP and then added to the 200 μl culture wells. After 16 hours IL-12 p40 and TNF-α ELISAs were performed as described in Example 1.
In order to investigate the possibility of using cholesteryl ester-modified RNA oligomer in place of RNA oligomer plus cationic lipid, RNA oligomer GUGUGUGU was prepared with (R 1058) and without (R 1006) a 3′ cholesteryl ester modification. These two RNA oligomers with and without DOTAP, were added over a range of concentrations to overnight cultures of human PBMC. Culture supernatants were harvested, and human TNF-α, IL-12 p40, and IFN-α were measured by ELISA using matched antibody pairs from BD-Pharmingen according to the manufacturer's protocol.
(§1) RNA oligomers GUGUGUGU, GUGUGUG, GUGUGU, GUGUG, GUGU, GUG, and GU, with and without DOTAP, were added over a range of concentrations to overnight cultures of human PBMC. Culture supernatants were harvested, and human TNF-α, IL-12 p40, and IFN-α were measured by ELISA using matched antibody pairs from BD-Pharmingen according to the manufacturer's protocol.
as §1, with “oligomers,” for “oligomers GUGUGUGU, GUGUGUG, GUGUGU, GUGUG, GUGU, GUG, and GU,”
(§2) Human PBMC were cultured overnight in the presence of added DNA:RNA conjugate, with and without DOTAP. Culture supernatants were harvested and human TNF-α, IL-6, IL-12 p40, IP-10, and IFN-α were measured by ELISA using matched antibody pairs from BD-Pharmingen according to the manufacturer's protocol.
Human PBMC were cultured overnight in the presence of various concentrations (1, 3, and 10 μg/ml) of tRNA obtained from wheat germ, bovine, yeast, and E. coli sources, added to the culture medium with and without DOTAP. Culture supernatants were harvested and human TNF-α and IL-12 p40 were measured by ELISA using matched antibody pairs from BD-Pharmingen according to the manufacturer's protocol. […] In addition, E. coli tRNA at 3 and 10 μg/ml induced minor amounts of both cytokines even without DOTAP. […]
FIG. 10 depicts the responsiveness of human PBMC to stringent response factor (SRF). SRF is produced by rapidly growing bacteria (in this case Listeria monocytogenes) in rich media until their late log phase. The bacteria were pelleted and resuspended in an equal volume of PBS for 24 h. The mixture is centrifuged to remove the bacteria. […]

[4] = system: human PBMC; assay: Human PBMC IL-6 secretion, ELISA; assay type: cell-based; conditions: Table 4, DNA:RNA conjugates; human PBMC overnight; including DOTAP
Description: as §2

[5] = system: human PBMC; assay: Human PBMC IP-10 secretion, ELISA; assay type: cell-based; conditions: Table 4, DNA:RNA conjugates; human PBMC overnight; including DOTAP
Description: as §2

Compound	human TLR7 response to modified guanosine ribonucleosides [2]	EC50 [4] [nM]	IL-6 max [4] [pg/mL]	TNF-α max [3] [pg/mL]	EC50 [3] [nM]	EC50 [5] [nM]	IP-10 max [5] [pg/mL]	further results
5′-TCCATGACGTTCCTGATGCT-3′ (CpG DNA, linkage chemistry not given here, further chemistry not given here) [ODN 1668]								IL-12 p40 secretion by wild type murine macrophages [1]: significant amounts
Nc1nc2c(nc(Br)n2[C@@H]2O[C@H](CO)[C@@H](O)[C@H]2O)c(=O)[nH]1 [8-bromo-guanosine, reference compound]	responded mildly							
Nc1nc2c(ncn2[C@H]2C[C@H](O)[C@@H](CO)O2)c(=O)[nH]1 [deoxy form of guanosine]	responded mildly							
Nc1nc2c(ncn2[C@@H]2O[C@H](CO)[C@@H](O)[C@H]2O)c(=O)[nH]1 [guanosine]	responsive							stimulation of PBMC to produce TNF ([3]; Example 14, in the absence of vanadate): effective; response of TLR7 transfectants (NF-κB luciferase) ([2]; FIG. 12, transient transfectants, 7 hours stimulation): responded; responsiveness of TLR7 to ribonucleosides and mixtures of two ([2]; FIG. 13): responded best
G*U*G*U*G*U*G*U*dT*dT*dT*dT*dT*dT (rG*rU*rG*rU*rG*rU*rG*rU*dT*dT*dT*dT*dT*dT) [R 1062]		400	28000	80000	300	100	400	
dG*dG*dG*dG_dG_G*U*G*U*G*U*G*U (dG*dG*dG*dGdGrG*rU*rG*rU*rG*rU*rG*rU) [R 1061]		> 20000	10000	20000	4300	1100	180	
dT*dT*dT*dT*dT*G*U*G*U*G*U*G*U (dT*dT*dT*dT*dT*rG*rU*rG*rU*rG*rU*rG*rU) [R 1063]		800	28000	60000	300	100	250	
